ChEMBL document CHEMBL3751769, “Design, synthesis, and evaluation of semi-conservative mono-carbonyl analogs of curcumin as anti-inflammatory agents against lipopolysaccharide-induced acute lung injury” (Medchemcomm, 2015)
Activity calls are given as the source filed them. The rule behind the calls is not given here.

Assays:
RAW264.7 [1] = test: Anti-inflammatory activity in mouse RAW264.7 cells assessed as inhibition of TNFalpha production at 10 uM preincubated for 30 mins followed by 0.5 ug/ml LPS addition after 24 hrs by ELISA; type: functional
[2] = Cytotoxicity against human HL-7702 cells assessed as cell viability at 10 uM after 24 hrs by MTT assay; type: cell-based; settings: l02, 24 h
RAW264.7 [3] = test: Anti-inflammatory activity in mouse RAW264.7 cells assessed as inhibition of IL-6 production at 10 uM preincubated for 30 mins followed by 0.5 ug/ml LPS addition after 24 hrs by ELISA; type: functional
RAW264.7 [4] = test: Anti-inflammatory activity in mouse RAW264.7 cells assessed as inhibition of TNFalpha production preincubated for 30 mins followed by 0.5 ug/ml LPS addition after 24 hrs by ELISA; type: functional, cell-based
RAW264.7 [5] = test: Anti-inflammatory activity in mouse RAW264.7 cells assessed as inhibition of IL-6 production preincubated for 30 mins followed by 0.5 ug/ml LPS addition after 24 hrs by ELISA; type: functional, cell-based
Rattus norvegicus [6] = test: Anti-inflammatory activity in Sprague-Dawley rat assessed as decrease in LPS-induced ICAM1 mRNA expression at 20 mg/kg/day, po for 7 days pre-treated before LPS challenge by real-time qPCR analysis; type: functional
Rattus norvegicus [7] = test: Anti-inflammatory activity in Sprague-Dawley rat assessed as decrease in LPS-induced IL6 mRNA expression at 20 mg/kg/day, po for 7 days pre-treated before LPS challenge by real-time qPCR analysis; type: functional
BEAS-2B [8] = test: Anti-inflammatory activity in human BEAS2B cells assessed as inhibition of LPS-induced IL6 mRNA expression by real-time qPCR analysis; type: functional; set-up: scale not given: the % may be the effect or the level left
Rattus norvegicus [9] = test: Anti-inflammatory activity in Sprague-Dawley rat assessed as decrease in LPS- induced wet/dry ratio of lung tissue at 20 mg/kg/day, po for 7 days pre-treated before LPS challenge and measured 6 hrs after LPS challenge; type: functional, organism-based
BEAS-2B [10] = test: Anti-inflammatory activity in human BEAS2B cells assessed as inhibition of LPS-induced TNFalpha mRNA expression by real-time qPCR analysis; type: functional; set-up: scale not given: the % may be the effect or the level left
BEAS-2B [11] = test: Anti-inflammatory activity in human BEAS2B cells assessed as inhibition of LPS-induced COX2 mRNA expression by real-time qPCR analysis; type: functional; set-up: scale not given: the % may be the effect or the level left
Rattus norvegicus [12] = test: Anti-inflammatory activity in Sprague-Dawley rat assessed as decrease in LPS- induced amount of TNFalpha in BALF at 20 mg/kg/day, po for 7 days pre-treated before LPS challenge and measured 6 hrs after LPS challenge by ELISA; type: functional, organism-based
Rattus norvegicus [13] = test: Anti-inflammatory activity in Sprague-Dawley rat assessed as reduction in LPS-induced histopathological changes at 20 mg/kg/day, po for 7 days pre-treated before LPS challenge and measured 6 hrs after LPS challenge by light microscopic analysis; type: functional, organism-based
Rattus norvegicus [14] = test: Anti-inflammatory activity in Sprague-Dawley rat assessed as decrease in LPS- induced elevation of BALF protein concentration at 20 mg/kg/day, po for 7 days pre-treated before LPS challenge and measured 6 hrs after LPS challenge; type: functional, organism-based
Rattus norvegicus [15] = test: Anti-inflammatory activity in Sprague-Dawley rat assessed as decrease in LPS-induced COX2 mRNA expression at 20 mg/kg/day, po for 7 days pre-treated before LPS challenge by real-time qPCR analysis; type: functional
Rattus norvegicus [16] = test: Anti-inflammatory activity in Sprague-Dawley rat assessed as decrease in LPS-induced TNFalpha mRNA expression at 20 mg/kg/day, po for 7 days pre-treated before LPS challenge by real-time qPCR analysis; type: functional
Rattus norvegicus [17] = test: Anti-inflammatory activity in Sprague-Dawley rat assessed as decrease in LPS-induced IL1beta mRNA expression at 20 mg/kg/day, po for 7 days pre-treated before LPS challenge by real-time qPCR analysis; type: functional
BEAS-2B [18] = test: Anti-inflammatory activity in human BEAS2B cells assessed as inhibition of LPS-induced IL1beta mRNA expression by real-time qPCR analysis; type: functional; set-up: scale not given: the % may be the effect or the level left
Rattus norvegicus [19] = test: Anti-inflammatory activity in Sprague-Dawley rat assessed as decrease in LPS- induced number of neutrophils in BALF at 20 mg/kg/day, po for 7 days pre-treated before LPS challenge and measured 6 hrs after LPS challenge by Wright-Giemsa staining method; type: functional, organism-based
Rattus norvegicus [20] = test: Anti-inflammatory activity in Sprague-Dawley rat assessed as decrease in LPS-induced VCAM1 mRNA expression at 20 mg/kg/day, po for 7 days pre-treated before LPS challenge by real-time qPCR analysis; type: functional

| Compound | inhibition (RAW264.7 [1]) | Activity [2] | inhibition (RAW264.7 [3]) | other results |
| --- | --- | --- | --- | --- |
| COc1cc(/C=C2\CC/C(=C\c3ccc4ccccc4c3)C2=O)ccc1O | Active | Non-toxic | Active | – |
| COc1ccc(/C=C2\CCC/C(=C\c3ccc(O)c(OC)c3)C2=O)cc1O | – | Non-toxic | – | inhibition (INH) (RAW264.7 [1]): >50%; inhibition (RAW264.7 [4]): Dose-dependent effect; inhibition (RAW264.7 [5]): Dose-dependent effect; inhibition (INH) (RAW264.7 [3]): >50% |
| COc1cc(/C=C2\CC/C(=C\c3c[nH]c4ccc(Br)cc34)C2=O)ccc1O | – | Non-toxic | – | inhibition in vivo at 20 mg/kg/day (Rattus norvegicus [6]): 74.1%; inhibition in vivo at 20 mg/kg/day (Rattus norvegicus [7]): 92.9%; Activity (BEAS-2B [8]): 30%; Activity (Rattus norvegicus [9]): Active; Activity (BEAS-2B [10]): 64.5%; Activity (BEAS-2B [11]): 64.9%; Activity (Rattus norvegicus [12]): Active; Activity (Rattus norvegicus [13]): Active; inhibition (INH) (RAW264.7 [1]): >50%; Activity (Rattus norvegicus [14]): Active; inhibition (RAW264.7 [4]): Dose-dependent effect; inhibition in vivo at 20 mg/kg/day (Rattus norvegicus [15]): 77.3%; inhibition in vivo at 20 mg/kg/day (Rattus norvegicus [16]): 38.4%; inhibition (RAW264.7 [5]): Dose-dependent effect; inhibition in vivo at 20 mg/kg/day (Rattus norvegicus [17]): 39.2%; Activity (BEAS-2B [18]): 55.6%; Activity (Rattus norvegicus [19]): Active; inhibition in vivo at 20 mg/kg/day (Rattus norvegicus [20]): 52.9%; inhibition (INH) (RAW264.7 [3]): >50% |
| COc1cc(/C=C2\CCC/C(=C\c3cc(Br)c(O)c(Br)c3)C2=O)ccc1O | Active | Non-toxic | Active | – |
| COc1cc(/C=C2\CCC/C(=C\c3cccc(F)c3)C2=O)ccc1O | Active | Non-toxic | Active | – |
| COc1cc(/C=C2\CCC/C(=C\c3ccccc3Br)C2=O)ccc1O | Active | Non-toxic | Active | – |
| COc1cc(/C=C2\CCC/C(=C\c3ccc(O)c(O)c3)C2=O)ccc1O | Active | Non-toxic | Active | – |
| COc1cc(/C=C2\CCC/C(=C\c3ccc(F)c(F)c3)C2=O)ccc1O | Active | Non-toxic | Active | – |
| COc1cc(/C=C2\CCC/C(=C\c3cccc(OC)c3OC)C2=O)ccc1O | Active | Non-toxic | Active | – |
| COc1cc(/C=C2\CCC/C(=C\c3cc(OC)c(OC)c(OC)c3)C2=O)ccc1O | Active | Non-toxic | Active | – |
| COc1cc(/C=C2\CC/C(=C\c3cc4ccccc4[nH]3)C2=O)ccc1O | – | Non-toxic | – | inhibition (INH) (RAW264.7 [1]): >50%; inhibition (INH) (RAW264.7 [3]): >50% |
| COc1cc(/C=C2\CCC/C(=C\c3c(C)cc(C)cc3C)C2=O)ccc1O | Active | Non-toxic | Active | – |
| COc1cc(/C=C2\CCC/C(=C\c3c(F)cccc3F)C2=O)ccc1O | Active | Non-toxic | Active | – |
| COc1cc(/C=C2\CCC/C(=C\c3ccc(Cl)cc3)C2=O)ccc1O | Active | Non-toxic | Active | – |
| COc1cc(/C=C2\CCC/C(=C\c3cc(F)ccc3F)C2=O)ccc1O | Active | Non-toxic | Active | – |
| COc1cc(/C=C2\CCC/C(=C\c3ccc(Cl)c([N+](=O)[O-])c3)C2=O)ccc1O | Active | Non-toxic | Active | – |
| COc1cc(/C=C2\CCC/C(=C\c3ccc(Cl)cc3Cl)C2=O)ccc1O | Active | Non-toxic | Active | – |
| COc1cc(/C=C2\CCC/C(=C\c3ccccc3OC)C2=O)ccc1O | Active | Non-toxic | Active | – |
| COc1cc(/C=C2\CCC/C(=C\c3ccc(O)cc3)C2=O)ccc1O | Active | Non-toxic | Active | – |

| Compound | inhibition (RAW264.7 [1]) | Activity [2] | inhibition (RAW264.7 [3]) | other results |
| --- | --- | --- | --- | --- |
| COc1cc(/C=C2\CCC/C(=C\c3cccc(Cl)c3Cl)C2=O)ccc1O | Active | Non-toxic | Active | – |
| CCOc1ccc(Br)cc1/C=C1\CCC/C(=C\c2ccc(O)c(OC)c2)C1=O | Active | Non-toxic | Active | – |
| COc1cc(/C=C2\CCC/C(=C\c3cccc(OC)c3O)C2=O)ccc1O | Active | Non-toxic | Active | – |
| COc1cc(/C=C2\CC/C(=C\c3c[nH]c4ncccc34)C2=O)ccc1O | Active | Non-toxic | Active | – |
| COc1cc(/C=C2\CCC/C(=C\c3ccc(O)c(Br)c3)C2=O)ccc1O | – | Non-toxic | – | inhibition (INH) (RAW264.7 [1]): >50%; inhibition (RAW264.7 [4]): Dose-dependent effect; inhibition (RAW264.7 [5]): Dose-dependent effect; inhibition (INH) (RAW264.7 [3]): >50% |
| COc1cc(/C=C2\CCC/C(=C\c3ccc(OC)c(OC)c3)C2=O)ccc1O | Active | Non-toxic | Active | – |
| COc1ccc(/C=C2\CCC/C(=C\c3ccc(O)c(OC)c3)C2=O)cc1 | Active | Non-toxic | Active | – |
| COc1cc(/C=C2\CCC/C(=C\c3ccccc3C(F)(F)F)C2=O)ccc1O | Active | Non-toxic | Active | – |
| COc1cc(/C=C2\CC/C(=C\c3cc(C)ccc3C)C2=O)ccc1O | – | Non-toxic | – | inhibition (INH) (RAW264.7 [1]): >50%; inhibition (RAW264.7 [4]): Dose-dependent effect; inhibition (RAW264.7 [5]): Dose-dependent effect; inhibition (INH) (RAW264.7 [3]): >50% |
| COc1ccc(/C=C2\CC/C(=C\c3ccc(O)c(OC)c3)C2=O)c(F)c1 | Active | Non-toxic | Active | – |
| COc1cc(/C=C2\CCC/C(=C\c3ccc(F)c(Br)c3)C2=O)ccc1O | Active | Non-toxic | Active | – |
| COc1cc(/C=C2\CCC/C(=C\c3ccc(Cl)c(Cl)c3)C2=O)ccc1O | Active | Non-toxic | Active | – |
| COc1cc(/C=C2\CCC/C(=C\c3ccc4ccccc4c3)C2=O)ccc1O | Active | Non-toxic | Active | – |
| COc1cc(/C=C2\CC/C(=C\c3cc4c(cc3Br)OCO4)C2=O)ccc1O | Active | Non-toxic | Active | – |
| COc1ccc(/C=C2\CCC/C(=C\c3ccc(O)c(OC)c3)C2=O)c(OC)c1 | Active | Non-toxic | Active | – |
| COc1cc(/C=C2\CCC/C(=C\c3ccccc3F)C2=O)ccc1O | Active | Non-toxic | Active | – |
| COc1cc(/C=C2\CCC/C(=C\c3cc4c(cc3Br)OCO4)C2=O)ccc1O | Active | Non-toxic | Active | – |
| COc1ccc(OC)c(/C=C2\CCC/C(=C\c3ccc(O)c(OC)c3)C2=O)c1 | Active | Non-toxic | Active | – |
